Series [1] has as its system α-isomaltosylglucosaccharide-forming enzyme. The experiment in a line: Influence of metal ions on α-isomaltosylglucosaccharide-forming enzyme activity (C9 strain). It counts as biochemical, Bacillus globisporus C9 strain. Conditions: in the presence of 1 mM metal salt; None = 100. As for the experimental part: The activities of these enzymes were assayed as follows: The activity of α-isomaltosylglucosaccharide-forming enzyme was assayed by dissolving maltotriose in 100 mM acetate buffer (pH 6.0) to give a concentration of 2% (w/v) for a substrate solution, adding 0.5 ml of an enzyme solution to 0.5 ml of the substrate solution, enzymatically reacting the mixture solution at 35° C. for 60 min, boiling the reaction mixture for 10 min to suspend the enzymatic reaction, and quantifying maltose, among the isomaltosyl maltose and maltose formed in the reaction mixture, on HPLC as described in Experiment 1. One unit activity of the α-isomaltosylglucosaccharide-forming enzyme was defined as the enzyme amount that forms one micromole of maltose per minute under the above enzymatic reaction conditions.
The influence of metal ions on the activity of α-isomaltosylglucosaccharide-forming enzyme was examined in the presence of 1 mM of any of metal salts according to the assay for the enzyme activity.

The test system of series [2] is Small intestinal mucosal enzyme. Nature of the series: Digestion test in vitro, small intestinal mucosal enzyme.
Series [3] can be described thus: Digestion test in vitro, synthetic gastric juice.
The target in series [4] is T1, amylopsin (Homo sapiens, UniProt P04746).
T1 sequence (P04746 16-511): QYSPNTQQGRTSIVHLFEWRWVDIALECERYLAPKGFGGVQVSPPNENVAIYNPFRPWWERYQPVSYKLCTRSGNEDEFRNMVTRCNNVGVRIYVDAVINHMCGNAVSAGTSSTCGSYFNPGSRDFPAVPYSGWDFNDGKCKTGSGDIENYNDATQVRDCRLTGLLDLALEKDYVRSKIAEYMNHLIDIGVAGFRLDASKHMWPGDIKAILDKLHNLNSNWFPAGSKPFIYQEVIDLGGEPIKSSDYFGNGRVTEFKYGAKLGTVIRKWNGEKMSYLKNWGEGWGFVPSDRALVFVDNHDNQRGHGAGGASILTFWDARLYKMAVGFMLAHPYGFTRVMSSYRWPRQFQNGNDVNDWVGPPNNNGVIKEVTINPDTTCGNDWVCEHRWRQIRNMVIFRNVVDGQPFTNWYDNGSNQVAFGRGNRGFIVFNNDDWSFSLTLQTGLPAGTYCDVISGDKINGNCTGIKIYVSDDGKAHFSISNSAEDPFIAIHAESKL
The experiment in a line: Digestion test in vitro, amylopsin.

For series [5], the system named is α-isomaltosylglucosaccharide-forming enzyme. Nature of the series: Specificity of transfer acceptor (C9 enzyme). It counts as biochemical, Bacillus globisporus C9 strain. The conditions noted are these: acceptor 1.6%, PINE-DEX #100 donor 4%, one unit/g donor, 30° C., pH 6.0, 24 hours. The method, then: (§1) A variety of saccharides were tested whether they could be used as transferring-acceptors for the α-isomaltosylglucosaccharide-forming enzyme. A solution of D-glucose, D-xylose, L-xylose, D-galactose, D-fructose, D-mannose, D-arabinose, D-fucose, L-sorbose, L-rhamnose, methyl-α-glucopyranoside, methyl-β-glucopyranoside, N-acetyl-glucosamine, sorbitol, α,α-trehalose, isomaltose, isomaltotriose, cellobiose, gentibiose, maltitol, lactose, sucrose, α-cyclodextrin, β-cyclodextrin, or γ-cyclodextrin was prepared. […] The reaction mixtures after the enzymatic reactions were analyzed on gas chromatography (abbreviated as “GLC” hereinafter) for monosaccharides and disaccharides as acceptors, and on HPLC for trisaccharides and higher saccharides as acceptors to confirm whether these saccharides could be used as their transfer acceptors. In the case of performing GLC, the following apparatuses and conditions were used: […] In the case of HPLC analysis, the apparatuses and conditions used were: HPLC apparatus, “CCPD” commercialized by Tosoh Corporation, Tokyo, Japan; column, “ODS-AQ-303” commercialized by YMC Co., Ltd., Tokyo, Japan; eluent, water at a flow rate of 0.5 ml/min; and detection, a differential refractometer.

The test system is the same in series [6]. Nature of the series: Specificity of transfer acceptor (C11 enzyme). Conditions: acceptor 1.6%, PINE-DEX #100 donor 4%, one unit/g donor, 30° C., pH 6.0, 24 hours. It is filed as biochemical, Bacillus globisporus C11 strain. As for the experimental part:
as §1

Series [7] deals with T2, salivary amylase (Homo sapiens, UniProt P0DUB6).
T2 sequence (P0DUB6 16-511): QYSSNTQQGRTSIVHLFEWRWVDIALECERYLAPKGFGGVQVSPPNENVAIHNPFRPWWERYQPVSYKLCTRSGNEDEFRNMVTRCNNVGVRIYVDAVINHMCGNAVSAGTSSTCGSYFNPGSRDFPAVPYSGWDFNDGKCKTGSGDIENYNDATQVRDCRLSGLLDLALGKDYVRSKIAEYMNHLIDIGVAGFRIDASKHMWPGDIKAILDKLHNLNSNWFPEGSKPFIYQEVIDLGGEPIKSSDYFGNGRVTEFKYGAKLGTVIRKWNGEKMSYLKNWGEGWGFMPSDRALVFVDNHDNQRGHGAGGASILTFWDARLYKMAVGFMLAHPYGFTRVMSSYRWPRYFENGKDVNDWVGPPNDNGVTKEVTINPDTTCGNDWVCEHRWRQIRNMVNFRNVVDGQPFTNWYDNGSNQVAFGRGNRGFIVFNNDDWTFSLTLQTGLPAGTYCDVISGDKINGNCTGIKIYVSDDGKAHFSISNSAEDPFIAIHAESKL
The experiment in a line: Digestion test in vitro, salivary amylase.

The test system of series [8] is Bifidobacterium adolescentis JCM 1275. The experiment in a line: Assimilation test. It is filed as cell-based. Conditions: 0.5% saccharide in PYF medium, 37° C., four days, anaerobic.
The subject of series [9] is Lactobacillus acidophilus JCM 1132. The experiment in a line: Assimilation test. Conditions: 0.5% saccharide in PYF medium, 37° C., four days, anaerobic. It counts as cell-based.
The subject of series [10] is Clostridium perfringens JCM 3816. It is filed as cell-based. The conditions noted are these: 0.5% saccharide in PYF medium, 37° C., four days, anaerobic.
The test system of series [11] is Bacteroides vulgatus JCM 5826. Nature of the series: Assimilation test. It counts as cell-based. The conditions noted are these: 0.5% saccharide in PYF medium, 37° C., four days, anaerobic.
Series [12] has as its system Eubacterium aerofaciens ATCC 25986. The experiment in a line: Assimilation test. It is filed as cell-based. The conditions noted are these: 0.5% saccharide in PYF medium, 37° C., four days, anaerobic.
The subject of series [13] is Escherichia coli IFO 3301. The experiment in a line: Assimilation test. It is filed as cell-based. The conditions noted are these: 0.5% saccharide in PYF medium, 37° C., four days, anaerobic.

Turning to `[Mg+2]` [Mg^2+], the “Relative activity (%)” value in series [1] was found to be 100%.

On to `OC[C@@H](O)[C@@H](O[C@H]1O[C@H](CO)[C@@H](O)[C@H](O)[C@H]1O)[C@H](O)[C@@H](O)CO` [Maltitol, maltitol], for which the “Decomposition percentage (%) by digestive enzyme” value in series [2] is recorded as 4.0%; in series [3], 0.0%; in series [4] it was 0.0%; in series [7], 0.0%. Also, in series [5], the “Product of saccharide transferring reaction, Enzyme of C9 strain” value is on record as “++ (a saccharide-transferred product was detected in an amount of at least ten percent through transferring reaction to acceptor)”. Further, the “Product of saccharide transferring reaction, Enzyme of C11 strain” value in [6] is reported as “++ (a saccharide-transferred product was detected in an amount of at least ten percent through transferring reaction to acceptor)”.

Regarding `O=C[C@H](O)[C@@H](O)[C@H](O)[C@H](O)CO` [D-Glucose, D-glucose, reference compound], the Assimilability entry in series [8], in [9], in [10], in [11], in [12] and in [13] was “+ (judged as positive (+) when the post culture had a pH of below 6.0)” in each case. Further, in series [5], the “Product of saccharide transferring reaction, Enzyme of C9 strain” value is “+ (a saccharide-transferred product was detected in an amount of at least one percent but less than ten percent through transferring reaction to acceptor)”. The “Product of saccharide transferring reaction, Enzyme of C11 strain” value in series [6] was “+ (a saccharide-transferred product was detected in an amount of at least one percent but less than ten percent through transferring reaction to acceptor)”.

For the origin of these results see patent publication US7186701B2, “Dehydrating agent and method for dehydrating moist article using the agent and dehydrated article obtained by the method” (Kabushiki Kaisha Hayashibara Seibutsu Kagaku Kenkyujo, priority 2001, dated 2007).
